A short description of data set [1]: Tablet dissolution in 0.1 N HCl, paddle. Particulars: combination tablet, 50 rpm, 900 ml. It counts as physicochemical.
Data set [2] in a line: Bulk density and tap density of crystal forms. The data set is classed as physicochemical. The text has this:
The novel crystalline hemihydrate form (form III) of Lamivudine has better flow property and bulk density, which are important parameters for formulation (Table I). [table]

The nature of data set [3]: Polymorphic stability when slurried in water. The data set is classed as physicochemical. Particulars: slurried in water at ambient temperature for 24 to 48 hours. How it is done:
A suspension of the Lamivudine form-II (5.0 gm) in water (5.0 ml) was stirred at 25° C. for 48 hours. The suspension was cooled and stirred at 10° C. for one hour. The product was filtered and then dried under vacuum at 45° C. for 24 hours. Yield=4.5 gms
A suspension of the Lamivudine form-I (2.0 gm) in water (2.0 ml) was stirred at 25° C. for 24 hours. The suspension was cooled and stirred at 10° C. for one hour. The product was filtered and then dried under vacuum at 45° C. for 24 hours. Yield=1.6 gms

The nature of data set [4]: Flow property (angle of repose). The data set is classed as physicochemical. Particulars: procedure of Lachman et al., page 317.
The nature of the next data set: Bioavailability. It counts as in vivo. Particulars: compared with known forms.
Data set [5] in a line: Polymorphic stability during milling. It counts as physicochemical.
Data set [6] is described as follows: Storage stability at 40±2° C. RH 75±5%. The data set is classed as physicochemical. Particulars: stored at 40±2° C. RH 75±5%.
The conditions of data set [7]: background, U.S. Pat. No. 5,905,082; cited from earlier work.

In the case of `Cc1cn([C@H]2C[C@H](N=[N+]=[N-])[C@@H](CO)O2)c(=O)[nH]c1=O` [Zidovudine], the “Dissolution (%)” value came out at 81.1% in data set [1] (5 minutes); 87.8% in data set [1] (10 minutes); 95.2% in data set [1] (20 minutes); 100.4% in data set [1] (30 minutes); 101.5% in data set [1] (40 minutes).

As to `Nc1cc[n+](C2CSC(CO)O2)c(=O)[nH]1` (stereo not drawn) [Form II, (2R-cis)-4-amino-1-[2-(hydroxymethyl)-1,3-oxathiolan-5-yl]-2(1H)-pyrimidinone], in data set [2], the “Bulk Density” value came out at 0.38 gm/cc and the “Tap Density” value amounted to 0.55 gm/cc. Moreover, in data set [3], the “Change of crystal form when slurried in water” value is given as “get converted to Form III”. In addition, the “Flow Property (Angle of Repose)” value in data set [4] was determined as 32.00°.

With `Nc1cc[n+](C2CSC(CO)O2)c(=O)[nH]1` (stereo not drawn) [Form III, (2R-cis)-4-amino-1-[2-(hydroxymethyl)-1,3-oxathiolan-5-yl]-2(1H)-pyrimidinone], in data set [2], the “Bulk Density” value is on record as 0.64 gm/cc and the “Tap Density” value is given as 0.83 gm/cc. Also, the “Flow Property (Angle of Repose)” value in data set [4] is on record as 32.00°. Also, the Bioavailability entry in “Bioavailability” is “comparable bioavailability”. Further, in data set [5], the “Change in crystal structure during milling” value was “does not undergo any change in crystal structure during milling”. Besides, the Stability on storage result in data set [6] is listed as “stable for more than three months”.

As to `Nc1cc[n+](C2CSC(CO)O2)c(=O)[nH]1` (stereo not drawn) [Lamivudine, (2R-cis)-4-amino-1-[2-(hydroxymethyl)-1,3-oxathiolan-5-yl]-2(1H)-pyrimidinone], the “Dissolution (%)” value is 80.9% in data set [1] (5 minutes); 86.2% in data set [1] (10 minutes); 92.0% in data set [1] (20 minutes); 96.0% in data set [1] (30 minutes); 96.7% in data set [1] (40 minutes).

On to `Nc1cc[n+](C2CSC(CO)O2)c(=O)[nH]1` (stereo not drawn) [Form I, (2R-cis)-4-amino-1-[2-(hydroxymethyl)-1,3-oxathiolan-5-yl]-2(1H)-pyrimidinone], for which, in data set [2], the “Bulk Density” value came out at 0.46 gm/cc and the “Tap Density” value was found to be 0.60 gm/cc. Moreover, the “Change of crystal form when slurried in water” value in data set [3] is listed as “get converted to Form III”. For the same compound, the “Flow Property (Angle of Repose)” value in data set [4] was determined as 33.66°. The “Change of crystal form during milling and formulation operation” value in data set [7] was “converts to form II”.

The values are drawn from patent publication US8158607B2, “Crystalline form of lamivudine” (Lupin Limited, priority 2006, dated 2012).
